{"source": "patent US20180231554A1", "about": "“PROGRAMMED CELL DEATH (PD-1) INHIBITOR THERAPY FOR PATIENTS WITH PD-1-EXPRESSING CANCERS” (The Brigham and Women's Hospital, Inc., priority 2015, published 2018)", "test_system": "melanoma patients", "assay": "Survival and IHC biomarker expression in melanoma patients undergoing anti-PD-1 therapy", "assay_type": "in vivo, human", "conditions": "for progression-free survival: greater than 25% vs less than 25% 4E-BP1 expression in pre-treatment biopsies; for progression-free survival / overall survival: Kaplan-Meier; for patients still alive 35 months after initiation of treatment: melanoma patients with >25% p-SHP2 expression in pre-treatment biopsies; for overall survival: n=34, >25% vs less than 25% melanoma-p-S6 expression in pre-treatment biopsies", "experimental": "As used herein, the term “progression-free survival” refers to the time from the first administration of anti-PD-1-based therapy to the first documented radiographic evidence of progressive disease. The term “overall survival” is defined as the time from the first administration of anti-PD-1 therapy to the date of death, regardless of cause.\nTumor cell lines, culture methods and clinical specimens: Human G3361 and C8161 and murine B16-F10 melanoma cell lines were cultured in RPMI-1640 medium (Life Technologies) supplemented with 10% (v/v) fetal bovine serum (Life Technologies) and 1% (v/v) penicillin streptomycin (Life Technologies) and human MKL-1, MKL-2, MS-1, and WaGa Merkel cell carcinoma cell lines in RPMI-1640 medium supplemented with 20% (v/v) fetal bovine serum and 1% (v/v) penicillin streptomycin. Clinical melanoma specimens were obtained from patients in accordance with the Institutional Review Boards of Partners Health Care Research Management, Boston, Mass. and the University of Zurich, Switzerland. Informed consent was obtained from all subjects.\nImmunohistochemical (IHC) staining methods: Tumor biopsy sections were deparaffininzed in xylene and subsequently rehydrated with 100%, 95%, and 75% ethanol and deionized H2O. Sections were placed in target retrieval solution (Dako) and boiled in a Pascal pressure chamber (Dako) at 125° C. for 30 seconds, 90° C. for 10 seconds, and then cooled down to room temperature. IHC was performed using the two-step peroxidase or alkaline phosphatase method. For peroxidase-based detection of p-S6 and p-AKT, sections were incubated with 1 ug/ml rabbit anti-p-56 ribosomal protein or rabbit anti-p-AKT (Ser473) antibody (Cell Signaling Technology) at 4° C. overnight and then incubated with a 1:200 dilution of goat anti-rabbit IgG peroxidase conjugated antibody (Vector Laboratories) at room temperature for 1 hour. Immunoreactivity was detected using the NovaRed peroxidase substrate (Vector laboratories), according to the manufacturer's protocol. For alkaline phosphatase-based detection of t-SHP2, p-SHP2, p-S6, p-AKT, p-PI3K, p-PDK1, 4E-BP1, or p-eIF-4G, sections were incubated with a 1:200 dilution of t-SHP2, p-SHP2 (Santa Cruz Biotechnology), p-S6, p-AKT, p-PI3K, p-PDK1, 4E-BP1, or p-eIF-4G antibody (Cell Signaling Technology) for 1 hour at room temperature, followed by incubation with a 1:100 dilution of biotin-conjugated secondary antibody (R&D Systems) for 30 minutes at room temperature and a subsequent incubation with a 1:100 dilution of streptavidin-alkaline phosphatase (Roche) for 30 minutes at room temperature. Immunoreactivity was detected using the FAST Red Chromogen System (Biolegend), per the manufacturer's instructions. Nuclear counterstaining (blue) was performed with Meyer's haemalum for both methods.\nImaging and quantification of IHC tumor sections: All images of IHC-stained sections were analyzed with a Nikon microscope (DXM 1200F) and captured using the NIS-Elements software (BR 2.30 Nikon). Expression of p-S6 and 4E-BP1 antigens was graded by n=2-3 independent investigators blinded to the study outcome on a scale of 0-4 (0: no p-S6 expression by melanoma cells; 1: p-S6 expression in 1%-25%; 2: 26%-50%; 3:51%-75%; 4: >75% of melanoma cells). For each slide, at least two areas with the highest numbers of 5-100(+) and MART-1(+) melanoma cells, as determined in serial sections, were selected for analysis."}
{"substance": "Pembrolizumab", "values": [{"measurement": "progression-free survival", "value": "significantly increased"}, {"measurement": "patients still alive 35 months after initiation of treatment", "value": 100, "unit": "%"}, {"measurement": "overall survival", "value": "significantly enhanced"}]}
{"substance": "Nivolumab", "values": [{"measurement": "progression-free survival", "value": "significantly increased"}, {"measurement": "patients still alive 35 months after initiation of treatment", "value": 100, "unit": "%"}, {"measurement": "overall survival", "value": "significantly enhanced"}]}
